Paper PMC8787486 (mBio, 2022)

Experiments:
[1] = biological target: T1, BlaMab (Mycobacteroides abscessus, UniProt B1MCI3); experiment: nitrocefin competition kinetics with purified enzyme; ESI-MS carbamoyl-enzyme adduct (+[…] Da); Kd = koff/(k2/K); format: biochemical
T1 construct: gene MAB_2875

[2] = biological target: T2, LdtMab2 (Mycobacteroides abscessus, UniProt B1MMQ4); experiment: timed ESI-MS of intact protein, +[…] Da carbamoyl-enzyme adduct after […] h; format: binding
T2 construct: gene MAB_1530
T2 sequence (B1MMQ4 42-406): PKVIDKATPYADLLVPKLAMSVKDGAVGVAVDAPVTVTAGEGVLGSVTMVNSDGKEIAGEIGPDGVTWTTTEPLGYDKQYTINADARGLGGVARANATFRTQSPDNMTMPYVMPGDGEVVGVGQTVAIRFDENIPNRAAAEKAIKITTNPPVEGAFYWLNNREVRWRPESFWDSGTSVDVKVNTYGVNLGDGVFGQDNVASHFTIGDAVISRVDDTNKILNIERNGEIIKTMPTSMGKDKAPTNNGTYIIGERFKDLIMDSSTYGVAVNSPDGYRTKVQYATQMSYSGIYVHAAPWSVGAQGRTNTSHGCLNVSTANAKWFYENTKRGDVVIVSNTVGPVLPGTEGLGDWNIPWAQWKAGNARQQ

[3] = biological target: T3, LdtMab4 (Mycobacteroides abscessus, UniProt B1MKW1); experiment: as above; format: binding
T3 construct: gene MAB_4537c
T3 sequence (B1MKW1 42-333): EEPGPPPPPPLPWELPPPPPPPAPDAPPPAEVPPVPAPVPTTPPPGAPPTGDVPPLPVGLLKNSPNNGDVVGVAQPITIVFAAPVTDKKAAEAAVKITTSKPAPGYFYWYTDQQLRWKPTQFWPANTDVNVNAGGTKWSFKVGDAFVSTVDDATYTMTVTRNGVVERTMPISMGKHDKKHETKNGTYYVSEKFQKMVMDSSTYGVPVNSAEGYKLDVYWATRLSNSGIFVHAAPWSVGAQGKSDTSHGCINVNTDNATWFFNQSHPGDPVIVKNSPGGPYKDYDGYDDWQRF

[4] = tested on: O=C(Cc1cccs1)N[C@@H]1C(=O)N2C(C(=O)O)=C(/C=C/c3ccc([N+](=O)[O-])cc3[N+](=O)[O-])CS[C@H]12; experiment: purified protein; format: biochemical, Mycobacteroides abscessus

Row | Compound | Kd [1] [pM] | timed ESI-MS of intact protein, +278 Da carbamoyl-enzyme adduct after 2 h [2] | timed ESI-MS of intact protein, +276 Da carbamoyl-enzyme adduct after 2 h [3] | Km [4] [µM]
1 | CC1=C[C@@H]2CN(C(=O)N2OS(=O)(=O)O)[C@@H]1C(N)=O [DUR, durlobactam] | 200 ± 100 | DUR formed carbamoyl-enzyme complexes with D,D-c (Fig. 3B), LdtMab2, and LdtMab4 (Fig. 3C and E). | DUR formed carbamoyl-enzyme complexes with D,D-c (Fig. 3B), LdtMab2, and LdtMab4 (Fig. 3C and E). | –
2 | BlaMab (Mycobacteroides abscessus ATCC 19977) | – | – | – | 22
